The NIST ThermoML archive (doi:10.1016/j.fluid.2012.08.016)
Numbers after ± are expanded uncertainties.

Assay: xn = mol fraction of the nth substance listed
Details: Liquid, Vibrating tube method, x2 = 0.667

C[N+](C)(C)CCO.[Cl-] [choline chloride] + OCC(O)CO
mass density [kg/m3]
Details	298.15 K	303.15 K	308.15 K	313.15 K	318.15 K	323.15 K
100 kPa	1192.1 ± 2.6	1189.2 ± 2.6	1186.2 ± 2.6	1183.4 ± 2.6	1180.5 ± 2.6	1177.7 ± 2.6
5000 kPa	1193.6 ± 2.7	1190.7 ± 2.7	1187.7 ± 2.6	1184.9 ± 2.6	1182 ± 2.6	1179.2 ± 2.6
10000 kPa	1195 ± 2.7	1192.1 ± 2.7	1189.2 ± 2.7	1186.3 ± 2.7	1183.5 ± 2.7	1180.6 ± 2.6
15000 kPa	1196.3 ± 2.7	1193.5 ± 2.7	1190.6 ± 2.7	1187.7 ± 2.7	1184.9 ± 2.7	1182.1 ± 2.7
20000 kPa	1197.7 ± 2.7	1194.8 ± 2.7	1192 ± 2.7	1189.1 ± 2.7	1186.3 ± 2.7	1183.5 ± 2.7
25000 kPa	1199.1 ± 2.7	1196.2 ± 2.7	1193.3 ± 2.7	1190.5 ± 2.7	1187.7 ± 2.7	1184.9 ± 2.7
30000 kPa	1200.4 ± 2.8	1197.6 ± 2.8	1194.7 ± 2.7	1191.9 ± 2.7	1189.1 ± 2.7	1186.3 ± 2.7
35000 kPa	1201.7 ± 2.8	1198.9 ± 2.8	1196 ± 2.8	1193.3 ± 2.8	1190.4 ± 2.8	1187.7 ± 2.7
40000 kPa	1203 ± 2.8	1200.2 ± 2.8	1197.4 ± 2.8	1194.6 ± 2.8	1191.8 ± 2.8	1189.1 ± 2.8
45000 kPa	1204.3 ± 2.8	1201.5 ± 2.8	1198.7 ± 2.8	1195.9 ± 2.8	1193.1 ± 2.8	1190.4 ± 2.8
50000 kPa	1205.6 ± 2.9	1202.8 ± 2.8	1200 ± 2.8	1197.2 ± 2.8	1194.4 ± 2.8	1191.7 ± 2.8
